# Reference: ChEMBL document CHEMBL1126745, “2,2-Dialkylnaphthalen-1-ones as new potassium channel activators” (J Med Chem, 1993)
# Columns and labels:
# Rattus norvegicus [1] = organism: Rattus norvegicus; assay: Percentage of inhibition of noradrenaline-induced contractions in rat portal vein at 10 uM (in vitro); format: functional
# Rattus norvegicus [2] = assay: Change in systolic blood pressure at intervals of 1 hr after oral administration of 1 mg/kg of compound in spontaneously hypertensive rats (in vivo); Not significant; format: functional, Artery
# Rattus norvegicus [3] = organism: Rattus norvegicus; assay: In vitro inhibition of noradrenaline-induced contractions in rat portal vein; format: functional
# Cavia porcellus = organism: Cavia porcellus; assay: In vitro inhibition of spontaneous tone of guinea pig tracheal spirals; format: functional; details: Trachea
# Rattus norvegicus [4] = assay: Change in systolic blood pressure at intervals of 1 hr after oral administration of 1 mg/kg of compound in spontaneously hypertensive rats (in vivo); format: functional, Artery
Compound,inhibition at 10 µM (Rattus norvegicus [1]),Delta blood pressure (Rattus norvegicus [2]),IC50 (Rattus norvegicus [3]),IC50 (Cavia porcellus),Max fall in blood pressure (Rattus norvegicus [4]),Delta blood pressure (Rattus norvegicus [4])
COc1ccc2c(c1)C(N1CCCC1=O)=CC(C)(C)C2=O,20%,<20 mmHg,–,–,–,–
CC1(C)C=C(N2Cc3ccccc3C2=O)c2cc(C#N)ccc2C1=O,–,–,0.6 µM,1.3 µM,34 mmHg,–
CC1(C)C(=O)c2ccccc2[C@@H](n2ccccc2=O)[C@@H]1O,0%,<20 mmHg,–,–,–,–
CC1(C)C=C(N2CCCC2=O)c2cc(Br)ccc2C1=O,–,–,10 µM,7.3 µM,–,–
CC1(C)C(=O)c2ccc(S(=O)(=O)c3ccccc3)cc2[C@@H](n2ccccc2=O)[C@@H]1O,–,–,0.3 µM,0.7 µM,–,–
CC1(C)C(=O)c2ccc(C#N)cc2[C@@H](NC(=O)c2ccccn2)[C@@H]1O,–,–,23 µM,> 10 µM,–,–
CNc1ccc2c(c1)C(n1ccccc1=O)=CC(C)(C)C2=O,–,<20 mmHg,52 µM,9.1 µM,–,–
CC1(C)C(=O)c2ccc(C#N)cc2[C@@H](NC(=O)c2ccccc2)[C@@H]1O,–,–,–,1.8 µM,31 mmHg,–
CC(=O)N[C@@H]1c2cc(C#N)ccc2C(=O)C(C)(C)[C@H]1O,–,–,45 µM,8.7 µM,28.6 mmHg,–
CC1(C)C(=O)c2ccc(Br)cc2C(N2CCCC2=O)[C@@H]1O (stereo partly specified),40%,–,–,> 10 µM,39 mmHg,–
CC1(C)C=C(n2ccccc2=O)c2ccc(Br)cc2C1=O,–,–,2.7 µM,4.7 µM,37 mmHg,–
CC1(C)C=C(N2CCCCC2=O)c2cc(Br)ccc2C1=O,–,–,8 µM,3.5 µM,43.6 mmHg,–
CC1(C)C(=O)c2ccc(Cl)cc2[C@@H](n2ccccc2=O)[C@@H]1O,0%,–,–,–,–,–
CC1(C)C(=O)c2ccc(Br)cc2[C@@H](n2ccccc2=O)[C@@H]1O,–,–,28 µM,> 10 µM,31 mmHg,–
CC1(C)C(=O)c2ccc(C#N)cc2[C@@H](Oc2ccccn2)[C@@H]1O,–,–,25 µM,5.5 µM,43 mmHg,–
CC1(C)C(=O)c2ccc(C#N)cc2[C@@H](NC(=O)c2ccc(Cl)cc2Cl)[C@@H]1O,35%,<20 mmHg,–,> 10 µM,–,–
CC1(C)C(=O)c2ccc(C#N)cc2[C@@H](OC2=CC(=O)CC2)[C@@H]1O,9%,–,–,> 10 µM,–,50 mmHg
CC1(C)C=C(n2ccccc2=O)c2cc(S(=O)(=O)c3ccccc3)ccc2C1=O,–,–,0.1 µM,0.5 µM,32.6 mmHg,–
CC1(C)C(=O)c2cc(Cl)c(Cl)cc2[C@@H](n2ccccc2=O)[C@@H]1O,–,–,1.5 µM,5 µM,52 mmHg,–
CCC1(CC)CCc2cc(OC)ccc2C1=O,–,–,8 µM,> 10 µM,83 mmHg,–
CC1(C)C(=O)c2ccc(C#N)cc2[C@@H](NC(=O)c2ccncc2)[C@@H]1O,39%,<20 mmHg,–,> 10 µM,–,–
CC1(C)C(=O)c2ccc(Br)cc2[C@@H](N2CCN=C2NC#N)[C@@H]1O,8%,–,–,> 10 µM,27.6 mmHg,–
CC1(C)C(=O)c2ccc(Br)cc2[C@@H](N2CCS/C2=N\C#N)[C@@H]1O,26%,–,–,–,30.5 mmHg,–

Compound,inhibition at 10 µM (Rattus norvegicus [1]),Delta blood pressure (Rattus norvegicus [2]),IC50 (Rattus norvegicus [3]),IC50 (Cavia porcellus),Max fall in blood pressure (Rattus norvegicus [4]),Delta blood pressure (Rattus norvegicus [4])
CC(=O)N(C)c1ccc2c(c1)C(n1ccccc1=O)=CC(C)(C)C2=O,–,–,4.3 µM,3.1 µM,74 mmHg,–
CC1(C)C(=O)c2ccc(C(F)(F)F)cc2[C@@H](n2ccccc2=O)[C@@H]1O,–,–,–,1.4 µM,–,–
COC(=O)c1ccc2c(c1)C(n1ccccc1=O)=CC(C)(C)C2=O,–,–,2.7 µM,8.5 µM,39 mmHg,–
CC1(C)C=C(n2ccccc2=O)c2cc(Br)ccc2C1(C)O (stereo unspecified),23%,<20 mmHg,–,4.2 µM,–,–
CC1(C)C=C(N2CCCC2=O)c2cc(Cl)ccc2C1=O,0%,–,–,> 10 µM,32.5 mmHg,–
C=CCn1nc(O[C@@H]2c3cc(C#N)ccc3C(=O)C(C)(C)[C@H]2O)ccc1=O,–,–,14 µM,3.9 µM,–,–
COc1ccc(C(=O)N[C@@H]2c3cc(C#N)ccc3C(=O)C(C)(C)[C@H]2O)cc1,–,–,12 µM,12.2 µM,–,–
CO/N=C1\c2ccc(C#N)cc2C(n2ccccc2=O)=CC1(C)C,–,–,25 µM,> 10 µM,32.4 mmHg,–
CC1(C)C=C(n2ccccc2=O)c2cc(C#N)ccc2/C1=N\O,27%,–,–,12.5 µM,28 mmHg,–
CC(=O)N(C)c1ccc2c(c1)C(N1CCCC1=O)=CC(C)(C)C2=O,–,–,17 µM,2.5 µM,23 mmHg,–
CC1(C)C(=O)c2ccc(Br)cc2[C@@H](N2Cc3ccccc3C2=O)[C@@H]1O,–,–,3.1 µM,> 10 µM,24 mmHg,–
CC1(C)C=C(n2ccccc2=O)c2cc(Cl)c(Cl)cc2C1=O,–,–,0.7 µM,0.1 µM,58 mmHg,–
CCC1(CC)C=C(n2ccccc2=O)c2cc(Br)ccc2C1=O,–,–,3.3 µM,8 µM,44 mmHg,–
C=Cc1ccc2c(c1)C(n1ccccc1=O)=CC(C)(C)C2=O,–,–,1.5 µM,4.6 µM,30.6 mmHg,–
CC1(C)C(=O)c2ccc(C#N)cc2C(N2CCCC2=O)[C@@H]1O (stereo partly specified),12%,–,–,> 10 µM,23 mmHg,–
CC1(C)C(=O)c2ccc(C#N)cc2[C@@H](n2ccccc2=O)[C@@H]1OC=O,–,–,–,4.3 µM,42 mmHg,–
CC(=O)O[C@H]1[C@H](n2ccccc2=O)c2cc(C#N)ccc2C(=O)C1(C)C,–,–,23 µM,2 µM,–,–
COC1c2ccc(Br)cc2C(n2ccccc2=O)=CC1(C)C (stereo unspecified),22%,–,–,17 µM,28 mmHg,–
CC1(C)C=C(NC(=O)c2ccccn2)c2cc(C#N)ccc2C1=O,–,–,9 µM,3.1 µM,22.5 mmHg,–
CC1(C)C=C(n2ccccc2=O)c2cc(Cl)ccc2C1=O,–,–,1.4 µM,1.1 µM,53.7 mmHg,–
CC(=O)N(C)c1ccc2c(c1)[C@@H](n1ccccc1=O)[C@H](O)C(C)(C)C2=O,–,–,33 µM,> 10 µM,94 mmHg,–
CC1(C)C(=O)c2ccc(C#N)cc2[C@@H](NC(=O)c2ccoc2)[C@@H]1O,24%,–,–,–,58 mmHg,–
CC1(C)C=C(N2CCCC2=O)c2ccc(C#N)cc2C1=O,0%,–,–,–,24.5 mmHg,–

Compound,inhibition at 10 µM (Rattus norvegicus [1]),Delta blood pressure (Rattus norvegicus [2]),IC50 (Rattus norvegicus [3]),IC50 (Cavia porcellus),Max fall in blood pressure (Rattus norvegicus [4]),Delta blood pressure (Rattus norvegicus [4])
CCC1(CC)C=C(n2ccccc2=O)c2cc(C#N)ccc2C1=O,–,–,7.8 µM,2.6 µM,35.6 mmHg,–
CC1(C)C(=O)c2ccc(Br)cc2[C@@H](Oc2ccccn2)[C@@H]1O,32%,–,–,–,33 mmHg,–
CCc1ccc2c(c1)C(n1ccccc1=O)=CC(C)(C)C2=O,–,–,5.5 µM,5.1 µM,58 mmHg,–
CC1(C)C(=O)c2ccc(F)cc2[C@@H](n2ccccc2=O)[C@@H]1O,0%,–,–,–,21.5 mmHg,–
COc1ccc2c(c1)C(n1ccccc1=O)=CC(C)(C)C2=O,–,–,21 µM,3.1 µM,–,–
CC1(C)C=C(n2ccccc2=O)c2cc(F)ccc2C1=O,–,–,19 µM,3.9 µM,35 mmHg,–
COC(=N)c1ccc2c(c1)C(n1ccccc1=O)=CC(C)(C)C2=O,–,–,11 µM,3.1 µM,–,27.5 mmHg
CC1(C)C=C(n2ccccc2=O)c2cc(C(=O)O)ccc2C1=O,0%,<20 mmHg,–,> 10 µM,–,–
CC1(C)C(=O)c2ccc(C#N)cc2[C@@H](NC(=O)c2cccnc2)[C@@H]1O,–,–,2.8 µM,4.1 µM,50 mmHg,–
CC1(C)C(=O)c2ccc(Br)cc2[C@@H](Oc2ccc(=O)[nH]n2)[C@@H]1O,–,–,0.8 µM,4.4 µM,–,–
COc1ccc2c(c1)[C@@H](n1ccccc1=O)[C@H](O)C(C)(C)C2=O,0%,–,–,> 10 µM,42.9 mmHg,–
CC1(C)C=C(N2CCCC2=O)c2ccc(Br)cc2C1=O,11%,–,–,> 10 µM,54.5 mmHg,–
CC1(C)C(=O)c2ccc(C#N)cc2[C@@H](NC(=O)c2ccc([N+](=O)[O-])cc2)[C@@H]1O,–,<20 mmHg,4.9 µM,7.9 µM,–,–
CC1(C)C=C(N2CCCC2=O)c2ccccc2C1=O,0%,<20 mmHg,–,–,–,–
Cn1nc(OC2=CC(C)(C)C(=O)c3ccc(C#N)cc32)ccc1=O,0%,–,–,–,–,24 mmHg
CC1(C)C=C(n2ccccc2=O)c2ccc(C#N)cc2C1=O,0%,–,–,> 10 µM,41 mmHg,–
CC(=O)c1ccc2c(c1)C(n1ccccc1=O)=CC(C)(C)C2=O,–,–,3.3 µM,1 µM,56.5 mmHg,–
CC1(C)C(=O)c2ccc(C#N)cc2[C@@H](N2Cc3ccccc3C2=O)[C@@H]1O,–,–,0.5 µM,1.1 µM,76 mmHg,–
CC1(C)C(=O)c2ccc(C#N)cc2[C@@H](n2ccccc2=O)[C@@H]1O,–,–,14 µM,> 10 µM,84 mmHg,–
CC1(C)C(=O)c2cc(Br)ccc2[C@@H](n2ccccc2=O)[C@@H]1O,–,–,42 µM,–,29.3 mmHg,–
CC(=O)O[C@H]1[C@H](n2ccccc2=O)c2cc(Br)ccc2C(=O)C1(C)C,38%,–,–,–,29 mmHg,–
